Laboratory results as given in publication PMC9740255 (Cells, 2022).
Where two headings read alike, the source gives them in different places.

Columns and labels:
[1] = target: T1, purified, full length dDAT (Drosophila melanogaster, UniProt Q7K4Y6); assay: Competitive inhibition of [3H]nisoxetine binding to purified dDAT by scintillation proximity assay (SPA)
T1 construct: Full length dDAT with a C-terminal thrombin cleavage site followed by a His8-tag; made in house; host or cells: Expi293F suspension cells transduced with BacMam baculovirus (virus produced in Sf9)
T1 sequence (Q7K4Y6 whole entry): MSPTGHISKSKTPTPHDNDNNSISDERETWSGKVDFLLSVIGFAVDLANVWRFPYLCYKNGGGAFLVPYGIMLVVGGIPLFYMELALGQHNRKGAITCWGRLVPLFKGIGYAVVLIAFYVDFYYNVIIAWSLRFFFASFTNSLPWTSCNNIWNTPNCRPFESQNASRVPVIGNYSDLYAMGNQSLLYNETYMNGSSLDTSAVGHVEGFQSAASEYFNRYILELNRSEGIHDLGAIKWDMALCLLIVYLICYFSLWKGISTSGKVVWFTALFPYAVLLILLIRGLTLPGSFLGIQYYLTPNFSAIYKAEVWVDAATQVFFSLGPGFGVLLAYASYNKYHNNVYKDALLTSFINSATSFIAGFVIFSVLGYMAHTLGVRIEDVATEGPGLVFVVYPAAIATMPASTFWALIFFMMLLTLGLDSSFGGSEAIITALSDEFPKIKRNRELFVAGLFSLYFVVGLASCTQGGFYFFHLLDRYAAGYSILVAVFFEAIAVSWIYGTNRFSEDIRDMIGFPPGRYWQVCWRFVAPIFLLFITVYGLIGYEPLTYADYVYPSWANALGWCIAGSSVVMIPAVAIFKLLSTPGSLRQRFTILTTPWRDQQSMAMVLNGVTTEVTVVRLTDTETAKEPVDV
Experimental: (§1) Binding of substrates and inhibitors to purified dDAT was assessed through saturation and competition binding by scintillation proximity assay (SPA).
(§2) This mixture was incubated on rotation for 45 min in darkness at 4 °C. The dDAT-SPA buffer mixture was added to the wells along with 100 nM of the desired tritiated ligand (often at 10% specific activity) and the dilution series of the unlabelled competitor. […] The plates were sealed, mixed at RT for 1.5 h on an agitator and left to settle at RT for 30 min. […] Plates were stored at 4 °C overnight and recounted to ensure that the original data was obtained at equilibrium. All experiments were performed in triplicates.
(§3) All statistical tests and data analyses were performed in GraphPad Prism 9 (GraphPad Software, Prism 9 version 9.2.0, San Diego, CA, USA). Unless otherwise specified, all data points are given as mean ± SEM (standard error of the mean) or mean [SEM interval]. Data obtained from competition binding analyses were fitted as a non-linear regression (curve fit) through an inhibitory dose–response model (variable slope), otherwise known as a four-parameter logistic equation. The non-specific binding condition was subtracted before fitting the data. From the logIC50, the IC50 can be obtained and, therefore, the affinity (Ki) derived through the Cheng-Prusoff equation. For homologous competitive binding, whereby the same compound is used as both the labelled and unlabelled ligand, the Cheng-Prusoff equation can be converted to obtain the Kd. Data plotted as a percentage of the control (absence of the competitive ligand) unless otherwise stated, i.e., normalized to the Bmax determined from the sigmoidal fit. Saturation binding data were fitted after subtracting the non-specific binding from each condition. The data were fitted as a non-linear regression (curve fit) through a sigmoidal dose–response (variable slope) model to determine the Kd. Ion binding study data were plotted using the same four-parameter logistic equation. […] The saturation curves on each plate were fitted with a globally shared Bmax value to enable estimation of low affinity constants.

hDAT [2] = settings: read-out: DAT Ki; footnote a: hDAT in HEK293 cells, [3H]CFT; ref 32 (Tatsumi et al. 1997); cited from earlier work
[3] = test system: dDAT stably transfected into MDCK cells; parameters: method as in ref 25 (Pörzgen et al. 2001); settings: uptake inhibition of [3H]dopamine, ref 25 (Pörzgen et al. 2001); cited from earlier work
[4] = target: T2, dDAT expressed in COS-7 cells (Drosophila melanogaster, UniProt Q7K4Y6); assay: Competition binding of [3H]nisoxetine in COS-7 cells expressing dDAT
T2 construct: Full length dDAT with a C-terminal thrombin cleavage site followed by a His8-tag; expressed in transfected cells; host or cells: COS-7 cells, transient transfection
T2 sequence (Q7K4Y6 whole entry): as above
Experimental: (§4) COS-7 cells (a generous gift from Prof. U. Gether, Univ. of Copenhagen) were transiently transfected in Opti-MEM media (ThermoFisher Scientific, Waltham, MA, USA) using lipofectamine 3000 (ThermoFisher Scientific, Waltham, MA, USA) with 0.36 µg hDAT in the pcDNA3.1 vector, 0.36–0.47 µg hNET in the pcDNA3.1 vector or 0.83–1.6 µg dDAT in pEG BacMam vector per 10^6 cells, in a lipofectamine:DNA (w/w) ratio of 3.5. Cells were seeded in 24-well plates (5 × 10^4/well) coated with poly-ornithine and incubated in 10% CO2 at 37 °C in DMEM media supplemented with 1% FBS.
(§5) Competition binding assays were performed directly in the culture dish 48 h after transfection of the cells. The competition binding experiments were carried out at room temperature (RT). […] All experiments were performed in triplicates.
as §3

[5] = target: T3, hNET expressed in COS-7 cells (Homo sapiens, UniProt P23975); assay: Competition binding of [3H]nisoxetine in COS-7 cells expressing hNET; settings: hNET in COS-7 cells; competitive inhibition of [3H]nisoxetine binding; mean [SEM interval]; read-out: NET Ki
T3 construct: expressed in transfected cells; host or cells: COS-7 cells, transient transfection
T3 sequence (P23975 whole entry): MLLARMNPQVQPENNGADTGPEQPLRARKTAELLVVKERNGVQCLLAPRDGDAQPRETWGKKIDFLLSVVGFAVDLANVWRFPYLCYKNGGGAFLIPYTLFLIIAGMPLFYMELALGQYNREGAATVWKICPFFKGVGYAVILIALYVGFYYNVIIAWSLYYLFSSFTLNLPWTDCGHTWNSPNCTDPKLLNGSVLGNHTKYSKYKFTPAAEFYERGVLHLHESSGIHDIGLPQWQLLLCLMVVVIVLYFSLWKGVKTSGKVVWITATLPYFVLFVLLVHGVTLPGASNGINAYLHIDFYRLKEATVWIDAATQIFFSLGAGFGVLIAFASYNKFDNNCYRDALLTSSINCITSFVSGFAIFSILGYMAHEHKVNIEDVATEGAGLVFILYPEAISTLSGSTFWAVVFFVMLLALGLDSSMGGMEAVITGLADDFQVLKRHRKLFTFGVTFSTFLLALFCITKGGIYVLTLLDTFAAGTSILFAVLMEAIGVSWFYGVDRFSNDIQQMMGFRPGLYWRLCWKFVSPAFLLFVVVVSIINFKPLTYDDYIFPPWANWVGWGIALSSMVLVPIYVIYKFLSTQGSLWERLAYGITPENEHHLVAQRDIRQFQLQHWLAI
Experimental: as §5
(§6) All statistical tests and data analyses were performed in GraphPad Prism 9 (GraphPad Software, Prism 9 version 9.2.0, San Diego, CA, USA). Unless otherwise specified, all data points are given as mean ± SEM (standard error of the mean) or mean [SEM interval]. Data obtained from competition binding analyses were fitted as a non-linear regression (curve fit) through an inhibitory dose–response model (variable slope), otherwise known as a four-parameter logistic equation. The non-specific binding condition was subtracted before fitting the data. From the logIC50, the IC50 can be obtained and, therefore, the affinity (Ki) derived through the Cheng-Prusoff equation. For homologous competitive binding, whereby the same compound is used as both the labelled and unlabelled ligand, the Cheng-Prusoff equation can be converted to obtain the Kd. Data plotted as a percentage of the control (absence of the competitive ligand) unless otherwise stated, i.e., normalized to the Bmax determined from the sigmoidal fit. Saturation binding data were fitted after subtracting the non-specific binding from each condition. […]

hNET [6] = target: hNET; parameters: method as in ref 32 (Tatsumi et al. 1997); settings: footnote a: hNET in HEK293 cells, [3H]nisoxetine; ref 32 (Tatsumi et al. 1997); read-out: NET Ki; cited from earlier work
NET = target: NET; parameters: method as in ref 33 (Agoston et al. 1997); settings: footnote c: [3H]unknown ligand for NET; ref 33 (Agoston et al. 1997); cited from earlier work
DAT = target: DAT; parameters: method as in ref 34 (Cao et al. 2016); settings: footnote d: rat caudate putamen membranes, [3H]CFT; ref 34 (Cao et al. 2016); cited from earlier work
[7] = target: T4, purified dDAT (dDAT-His8) (Drosophila melanogaster, UniProt Q7K4Y6); assay: Homologous competitive [3H]mazindol binding to purified dDAT (SPA)
T4 construct: Full length dDAT with a C-terminal thrombin cleavage site followed by a His8-tag; made in house; host or cells: Expi293F suspension cells transduced with BacMam baculovirus (virus produced in Sf9)
T4 sequence (Q7K4Y6 whole entry): as the sequence (Q7K4Y6 whole entry) above
Experimental: as §1, §2
as §6, with “condition. The data were fitted as a non-linear regression (curve fit) through a sigmoidal dose–response (variable slope) model to determine the Kd. Ion binding study data were plotted using the same four-parameter logistic equation.” for “condition.”

[8] = target: T4, purified dDAT (dDAT-His8); assay: Saturation binding of [3H]nisoxetine to purified dDAT (SPA)
Experimental: as §1
All experiments were performed in triplicates.
as §6

[9] = target: T5, hDAT expressed in COS-7 cells (Homo sapiens, UniProt Q01959); assay: Competition binding of [3H]CFT in COS-7 cells expressing hDAT; settings: hDAT in COS-7 cells; competitive inhibition of [3H]CFT binding; mean [SEM interval]; read-out: DAT Ki
T5 construct: expressed in transfected cells; host or cells: COS-7 cells, transient transfection
T5 sequence (Q01959 whole entry): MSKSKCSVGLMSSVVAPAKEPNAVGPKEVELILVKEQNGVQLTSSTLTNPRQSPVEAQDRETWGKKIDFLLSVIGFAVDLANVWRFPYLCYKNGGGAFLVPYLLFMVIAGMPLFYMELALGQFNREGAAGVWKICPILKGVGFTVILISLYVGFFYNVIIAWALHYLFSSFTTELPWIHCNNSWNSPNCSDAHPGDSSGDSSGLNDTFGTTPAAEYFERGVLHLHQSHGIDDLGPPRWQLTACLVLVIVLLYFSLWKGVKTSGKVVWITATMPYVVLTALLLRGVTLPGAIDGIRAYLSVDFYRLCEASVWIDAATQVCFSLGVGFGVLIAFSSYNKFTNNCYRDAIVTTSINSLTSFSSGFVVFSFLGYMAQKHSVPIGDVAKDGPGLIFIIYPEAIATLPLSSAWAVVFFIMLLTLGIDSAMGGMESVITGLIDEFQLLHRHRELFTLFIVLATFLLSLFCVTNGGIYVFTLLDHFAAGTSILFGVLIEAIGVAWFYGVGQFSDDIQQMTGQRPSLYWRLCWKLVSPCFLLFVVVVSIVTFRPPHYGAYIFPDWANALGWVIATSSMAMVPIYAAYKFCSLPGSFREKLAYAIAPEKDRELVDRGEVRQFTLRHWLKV
Experimental: as §4, §5
All statistical tests and data analyses were performed in GraphPad Prism 9 (GraphPad Software, Prism 9 version 9.2.0, San Diego, CA, USA). Unless otherwise specified, all data points are given as mean ± SEM (standard error of the mean) or mean [SEM interval]. […] Data plotted as a percentage of the control (absence of the competitive ligand) unless otherwise stated, i.e., normalized to the Bmax determined from the sigmoidal fit. […]

hNET [10] = target: hNET; parameters: method as in ref 35 (Owens et al. 2001); settings: footnote e: hNET in HEK293 cells, [3H]nisoxetine; ref 35 (Owens et al. 2001); read-out: NET Ki; cited from earlier work
hDAT [11] = target: hDAT; parameters: method as in ref 35 (Owens et al. 2001); settings: footnote e: hDAT in HEK293 cells, [125I]RTI-55; ref 35 (Owens et al. 2001); read-out: DAT Ki; cited from earlier work
[12] = dDAT in COS-7 cells, competitive inhibition of [3H]nisoxetine binding, mean [SEM interval]

SMILES	Ki ([1]; read-out: dDAT Ki) [µM]	IC50 [3] [nM]	further results
CN(C)CCC=C1c2ccccc2CCc2ccccc21 [Amitriptyline]	0.097	30 ± 1	Ki (hDAT [2]): 3250 ± 20 nM
CC(NC(C)(C)C)C(=O)c1cccc(Cl)c1 (stereo not drawn) [Bupropion]	7.5	48000 ± 5000	
COC(=O)[C@H]1[C@@H](c2ccc(F)cc2)C[C@@H]2CC[C@H]1N2C [CFT]	25		Ki [4, 12]: 3.9 µM; Ki [5]: 357 nM
COC(=O)[C@H]1[C@@H](OC(=O)c2ccccc2)C[C@@H]2CC[C@H]1N2C [Cocaine]	20	2660 ± 230	Ki (hNET [6]): 1420 ± 50 nM
C[C@H](N)Cc1ccccc1 [D-amphetamine]	18	6600 ± 900	
NCCc1ccc(O)c(O)c1 [Dopamine]		2900 ± 500	
CN(C)CCCN1c2ccccc2CCc2ccccc21 [Imipramine]		30 ± 10	
CCCCN1[C@@H]2CC[C@H]1CC(OC(c1ccc(F)cc1)c1ccc(F)cc1)C2 (stereo partly drawn) [JHW007]	3.1		Ki (NET): 1330 nM
[O-][S+](CCN1CCN(CC(O)Cc2ccccc2)CC1)C(c1ccc(F)cc1)c1ccc(F)cc1 (stereo not drawn) [JJC8-088]	33		Ki (DAT): 2.53 ± 0.25 nM
CC(O)CN1CCN(CC[S+]([O-])C(c2ccc(F)cc2)c2ccc(F)cc2)CC1 (stereo not drawn) [JJC8-091]	199		
OC1(c2ccc(Cl)cc2)c2ccccc2C2=NCCN21 (stereo not drawn) [Mazindol]	2.8	4.4 ± 2.2	Ki (hNET [6]): 0.45 ± 0.03 nM; IC50 [7]: 0.025 µM; Kd [7]: 13 µM; IC50 ([7]; read-out: IC50, second (lower affinity) binding population of biphasic curve, homologous [3H]mazindol competition, biphasic dataset T = 16 h, two-site fit, estimated): 79 µM; Ki ([1]; Ki, first (higher affinity) binding population of biphasic curve, [3H]nisoxetine displacement, T = 2 h at RT, two-site fit, representative dataset, estimated): 0.0002 µM; Ki ([1]; read-out: Ki, second (lower affinity) binding population of biphasic curve, [3H]nisoxetine displacement, T = 2 h at RT, two-site fit, representative dataset, estimated): 0.402 µM
CN[C@@H](C)Cc1ccccc1 [Methamphetamine]	13		Ki (hNET [6]): 660 ± 20 nM; Ki (hDAT [2]): 2800 ± 100 nM
NC(=O)C[S+]([O-])C(c1ccccc1)c1ccccc1 (stereo not drawn) [Modafinil]	554		
CNCCC(Oc1ccccc1OC)c1ccccc1 (stereo not drawn) [Nisoxetine]		5.6 ± 2.2	Kd [4]: 70 nM; Kd [8]: 31 nM
NC[C@H](O)c1ccc(O)c(O)c1 [Norepinephrine]	184	49000 ± 9000	Ki [4]: 68 µM
CNCCC=C1c2ccccc2CCc2ccccc21 [Nortriptyline]			Ki (hDAT [2]): 1140 ± 30 nM
Fc1ccc([C@@H]2CCNC[C@H]2COc2ccc3c(c2)OCO3)cc1 [Paroxetine]	0.322	22 ± 4	
COC(=O)[C@H]1C(c2ccc(I)cc2)C[C@@H]2CC[C@H]1N2C (stereo partly drawn) [RTI-55]	0.13	66 ± 10	Ki [4, 12]: 0.299 µM; Ki [9]: 0.5 nM; Ki [5]: 4 nM
CN(C)CCC[C@@]1(c2ccc(F)cc2)OCc2cc(C#N)ccc21 [S-citalopram]	24	8100 ± 2100	Ki (hNET [10]): 7.84 ± 0.998 µM; Ki (hDAT [11]): 27.4 ± 3.11 µM
NCCc1c[nH]c2ccc(O)cc12 [Serotonin]	173	43000 ± 7000	Ki (hNET [6]): > 100000 nM; Ki (hDAT [2]): > 100000 nM
